One data set deals with LLC cells. Description: Antitumor activity on BDF1 mice transplanted with LLC cells. The data set is classed as in vivo, mouse. The note with it: for Inhibition rate of tumor growth (%): i.p., WT 280, SPX1 70, SPX2 171, SPX3 30.5, SPX4 8.1, SB365 6.4, adriamycin 0.5 mg/kg. The protocol:
The mouse species used in this experiment was BDF1, and healthy male mice with the body weight of […] were used. These animals were supplied with water and foods ad libitum at a place of controlled temperature in the range of 2324° C., and were bred with an antibiotic-free mouse feed. LLC cells were subcutaneously cultured in C57BL/6 mice for 14 days. A LLC cell-containing tissue was taken and thereto was added sterilized cold physiological saline water (5 ml/g tissue) to prepare a cell suspension. The cell suspension of 0.2 ml was subcutaneously transplanted to the groin region of BDF1 mouse.
From 24 hours after transplantation, the above mice were divided into several groupsconsisting of 5 mice. Then, samples, fractions WT and SPX fractions, and SB365, were dissolved in physiological saline, and were injected intraperitoneally at each concentration of 280 mg/kg (WT), 70 mg/kg SPX1), 171 mg/kg (SPX2), 30.5 mg/kg (SPX3), 8.1 mg/kg (SPX4), and 6.4 mg/kg (SB365). To the negative control group was injected only the physiological saline, and to the positive control group was injected adriamycin (0.5 mg/kg). The injection was scheduled from 24 hours after tumor transplantation to administer the samples successively once a day for 7 days, and stopped for one day, and then, was carried out for 6 more consecutive days.
In order to evaluate toxicity of SB365 on mice, experimental mice were weighed twice a week. Antitumor activity was calculated after measuring tumor volume of the control and test groups on 14th and 15th day after sample administration as follows: • Tumor volume (mm^3)=length (mm)×width^2 (mm^2)/2 • Inhibition rate of tumor growth (%)=(C−T)×100/C • (C: average tumor volume in the control group, T: average tumor volume in the test group)

The subject of another data set is NCI-H23 cells. Description: Antitumor activity on nude mice transplanted with NCI-H23 cells. The data set is classed as in vivo, mouse. Conditions: for Inhibition rate of tumor growth (%) on NCI-H23: 16th day after tumor cells transplantation. How it is done:
Female nude mice of the age of 5 weeks weighing 16˜25 g obtained from Harlan Co. (USA) were used as experimental animals in this experiment. The mice were used after acclimation for 1 week in an aseptic animal room. The animal room maintained the temperature of 22±2° C., the humidity of 55±5%, and the light and darkness cycle of 12 hours, which was automatically controlled. Solid feed for experimental animals was radiosterilized, and drinking water was sterilized in an autoclave. The animals were supplied with feed and drinking water ad libitum. A human tumor cell line provided by National Cancer Institute (NCI), USA, and preserved in the Korean Research Institute of Bioscience and Biotechnology (KRIBB), Korea, was used. Lung tumor cells, NCI-H23 cells, among the human tumor cells, were transplanted to the nude mice. The tumor cells of 3×10^7 cells/ml were subcutaneously transplanted to the mice at a volume of 0.3 ml/20 g body weight. The samples were intraperitoneally injected to the mice every day for 13 days, that is, from 1 day to 14th day except 8th day after tumor cells transplantation. The size of tumor formed during the injection was measured in each animal, and any change in its body weight was also measured. On 16th day after tumor cells transplantation, the nude mice were sacrificed, and the tumor was separated and weighed. To the positive control group was intraperitoneally injected adiamycin of 0.5 mg/kg body weight on 1st, 5th, 9th, and 14th day.

Another data set relates to KB cells. The note with it: by inhibition of DNA polymerase; cited from earlier work.
Where [1] appears, read: 14th day after transplantation of tumor cells.
Where [2] appears, read: 15th day after transplantation of tumor cells.

Turning to `COc1cccc2c1C(=O)c1c(O)c3c(c(O)c1C2=O)C[C@@](O)(C(=O)CO)C[C@@H]3O[C@H]1C[C@H](N)[C@H](O)[C@H](C)O1` [Adriamycin, reference compound], the figures for the “Inhibition rate of tumor growth (%)” value with LLC cells (setting [1]) and in the data set on LLC cells (setting [2]) were 60% and 64%, respectively. In addition, the “Inhibition rate of tumor growth (%) on NCI-H23” value with NCI-H23 cells (0.5 mg/kg i.p. on 1st, 5th, 9th, 14th day) worked out at 61.5%.
Regarding `CC1OC(OC2C(O[C@H]3CC[C@@]4(C)C(CC[C@]5(C)C4CC=C4C6CC(C)(C)CC[C@]6(C(=O)O)CC[C@]45C)[C@]3(C)CO)OCC(OC3OC(CO)C(O)C(O)C3O)C2O)C(O)C(O)C1O` (stereo partly drawn) [SB365, hederagenin 3-O-α-L-rhamnopyranosyl(1→2)-[β-D-glucopyranosyl(1→4)]-α-L-arabinopyranoside], the figures for the “Inhibition rate of tumor growth (%)” value in the data set with LLC cells (setting [1]) and with LLC cells (setting [2]) were 82% and 79%, respectively. In addition, the “Antitumor activity (in words)” value with LLC cells (BDF1 mice transplanted with LLC cells) and in the data set with NCI-H23 cells (nude mice transplanted with NCI-H23 cells) was “higher antitumor activity” in each case. The “Inhibition rate of tumor growth” value in the data set on LLC cells (day not stated) turned out to be 81%. Moreover, the figures for the “Inhibition rate of tumor growth (%) on NCI-H23” value in the data set with NCI-H23 cells (1.6 mg/kg i.p.), in the data set with NCI-H23 cells (3.2 mg/kg i.p.) and in the data set with NCI-H23 cells (6.4 mg/kg i.p.) were 40.1%, 52.3% and 82.1%, respectively.
Consider `O=C1C=C[C@@H](COC2OC(CO)C(O)C(O)C2O)O1` (stereo partly drawn) [ranunculin, Ranunculin], for which the “Cytotoxicity (in words)” value in the data set with KB cells is recorded as “has cytotoxicity”.

The record behind these values is patent US20050239718A1, “Use of hederagenin 3-O-alpha-L-rhamnopyranosyl((1-2)-[betha-D-glucopyranosyl(1-4)]-alpha-L-arabinopyranoside or an extract from pulsatillae radix containing the same as a therapeutic agent for solid tumors” (priority 2002, published 2005).
